Twelve compounds from patent US20100160356A1, “NOVEL CYCLOBUTYL COMPOUNDS AS KINASE INHIBITORS” (priority 2006, published 2010) can be followed below.

For one series, the target named is IGF1R (Homo sapiens, UniProt P08069). Put plainly: Inhibition of IGF1R (flashplate assay). The class given is biochemical. Conditions: flashplate method. As for the experimental part: (§1) The test plates used are 96-well flashplate microtitre plates from Perkin Elmer (USA). The components of the kinase reaction are pipetted into the assay plate. The IGF1R kinase is incubated for 1 hr. with radioactively labelled ^33P-ATP in the presence and absence of test substances in a total volume of 100 μl at room temperature together with biotinylated poly(Glu, Tyr)4:1. The reaction is terminated using 25 μl of a 200 mM EDTA solution. After incubation for a further 30 min at room temperature, the supernatants are removed by suction, and the wells are washed three times with 100 μl of 0.9% NaCl solution each time. The radioactivity is measured using a Topcount scintillation counter (PerkinElmer, USA). IC50 values are calculated using the RS1 computer program.

The next series deals with T1, IGF1 receptor (IGF1R) (Homo sapiens, UniProt P08069).
T1 construct: endogenous in cells; host or cells: MCF-7 or Calu-6
Description: Inhibition of IGF1R (ELISA assay), IGF1-stimulated autophosphorylation in cells. The class given is cell-based. Conditions: human tumour cells stimulated with IGF1, read-out: IC50 IGF (ELISA). The procedure: The stimulation induces an autophosphorylation of tyrosine residues in the cytoplasmatic IGF1R domain, which triggers signal transduction cascades, which result in inhibition of apoptosis and proliferation of the cells.
The amount of phosphorylated IGF1R is determined by a receptor-specific capture ELISA or an analogous LUMINEX assay. The IGF1R from cell lysates is bound to a 96-well ELISA plate or LUMINEX beads by means of a specific antibody (“capturing”), and the tyrosine phosphorylation is detected using a biotin-labelled anti-phosphotyrosine antibody and a streptavidin-peroxidase conjugate by a chemiluminescence method or by means of a fluorescence-labelled anti-phosphotyrosine antibody.
For determination of the activity of kinase inhibitors, cells are pretreated with increasing concentrations of these compounds for 45 min and subsequently stimulated using IGF1 for 5 min. As internal control, the biological activity of the ligand IGF1 is checked, and a concentration series of an IGF1R reference inhibitor is measured.

Series [1] addresses T2, FAK (focal adhesion kinase) (Homo sapiens, UniProt Q05397).
T2 construct: endogenous in cells; host or cells: Calu-6 or HT-29
Description: Inhibition of FAK (ELISA assay), FAK phosphorylation in cells. The class given is cell-based. Conditions: human cells with FAK amplification. As for the experimental part: Activated FAK promotes the invasive growth of tumour cells and inhibits anoikis.
The amount of phosphorylated FAK is determined by a specific capture ELISA or an analogous LUMINEX assay. FAK from cell lysates is bound to a 96-well ELISA plate or LUMINEX beads by means of a specific antibody (“capturing”), and the tyrosine phosphorylation is detected using a biotin-labelled anti-phosphotyrosine antibody and a streptavidin-peroxidase conjugate by a chemiluminescence method or by means of a fluorescence-labelled anti-phosphotyrosine antibody.
For determination of the activity of kinase inhibitors, cells are pretreated with increasing concentrations of these compounds for 45 min, and the FAK phosphorylation is then determined. As internal control, a concentration series of a reference inhibitor is measured.
In general terms: An ELISA detects its analyte on a solid surface through an enzyme-linked reagent.

For a further series, the target named is VEGF-2 (Homo sapiens, UniProt P35968). Description: Inhibition of VEGF-2 (flashplate assay). The class given is biochemical. Conditions: flashplate method. The procedure:
as §1, with “are 384-well” for “are 96-well”, “The VEGF-2” for “The IGF1R”, “for 3” for “for 1”

The next series deals with TIE2 (Homo sapiens, UniProt Q02763). Description: Inhibition of TIE2 (flashplate assay). The class given is biochemical. The conditions noted are these: flashplate method. The procedure:
B4: inhibition of T1E2 (Flashplate Assay)
as §1, with “are 384-well” for “are 96-well”, “The TIE2” for “The IGF1R”, “for 3” for “for 1”

Series [2] in a line: Solubility in phosphate buffer by the shake flask method. Type of series: physicochemical. The conditions noted are these: 37 °C, pH 7, aqueous buffer, thermodynamic from solid, pH 7.0, 37° C., 24 h shake flask. The procedure:
The procedure described in Glomme et al. (J. Pharm. Sci. 94(1): 1-16, 2005) is followed. The concentration determination is carried out by HPLC with UV detection against a standard solution.
Buffer: 3.954 g of sodium dihydrogenphosphate monohydrate 6.024 g of sodium chloride +950 ml of ultrapure water. Setting of pH 7.0 using 0.1 M NaOH or 0.1 M HCl.
The samples were shaken at 37° C. and 450 rpm for 24 h. After about 7 h, the pH of the samples was checked and adjusted if necessary. It was checked whether the sample was still present in excess. Just before the end of the 24 h shaking time, the samples were again checked for pH and a precipitate.
• Ultrapure water plant: MilliQ gradient, Millipore, unit: F3PN37462D • Shaker: TiMix control, Bühler • Incubation hood: TH 15, Bühler • pH meter: 766 Calimatic Knick instrument: pH 1 • pH electrode: InLab 423 Mettler • HPLC: column: LiChroCart 125-4 LiChrospher 100 RP-18 • flow rate: 1.000 ml/min • eluents: • eluent A: 2 ml of diethylamine, for synthesis+1000 ml of methanol, LiChrosolv • eluent B: 5 g of ammonium acetate, for analysis+5 ml of methanol, LiChrosolv+995 ml of ultrapure water

The target of a further series is T3, TGFβR1 (Homo sapiens, UniProt P36897).
T3 sequence (P36897 34-503): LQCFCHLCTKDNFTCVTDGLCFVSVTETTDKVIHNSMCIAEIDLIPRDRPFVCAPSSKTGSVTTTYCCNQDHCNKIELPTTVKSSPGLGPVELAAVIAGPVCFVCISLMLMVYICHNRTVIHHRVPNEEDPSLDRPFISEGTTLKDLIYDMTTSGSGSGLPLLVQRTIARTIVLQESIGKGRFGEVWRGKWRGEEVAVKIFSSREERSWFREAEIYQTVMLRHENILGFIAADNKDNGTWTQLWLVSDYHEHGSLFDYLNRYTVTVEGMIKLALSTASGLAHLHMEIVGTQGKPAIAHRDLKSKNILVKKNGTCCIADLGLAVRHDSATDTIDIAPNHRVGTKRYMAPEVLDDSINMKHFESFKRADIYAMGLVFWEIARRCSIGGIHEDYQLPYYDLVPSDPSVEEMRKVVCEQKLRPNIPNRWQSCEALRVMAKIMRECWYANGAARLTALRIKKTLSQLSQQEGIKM
Description: Inhibition of TGFβR1 (flashplate assay). The class given is biochemical. Conditions: flashplate method. The procedure: The test is carried out as described in Example B1b for IGF1R. A biotinylated is added to the TGFβR1 kinase.
The kinase assay is carried out as a 384-well flashplate assay.
The components of the kinase reaction are pipetted into the assay plate. The TGFβR1 kinase is incubated for 45 min with radioactively labelled ^33P-ATP in the presence and absence of test substances together with biotinylated substrate in a total volume of 35 μl. The reaction is terminated using 25 μl of 200 mM EDTA solution, removed by suction after 30 min at room temperature, and the wells are washed with three times with 100 μl of 0.9% NaCl solution each time. The radioactivity is measured using a Topcount scintillation counter (PerkinElmer, USA). IC50 values are calculated using the RS1 computer program.

A further series deals with PDGFRβ (Homo sapiens, UniProt P09619). Description: Inhibition of PDGFRβ (flashplate assay). Type of series: biochemical. Conditions: flashplate method. The procedure:
as §1, with “The PDGFRβ” for “The IGF1R”, “for 3” for “for 1”, “temperature (here autophosphorylation of the kinase).” for “temperature together with biotinylated poly(Glu, Tyr)4:1.”, “using 150” for “using 25”, “a 60” for “a 200”, “with 200” for “with 100”

Each structure is given as a SMILES string. Values after ≈ are worked out from the molar mass of the structure shown.

VEGF-2, sequence (P35968 20-1356): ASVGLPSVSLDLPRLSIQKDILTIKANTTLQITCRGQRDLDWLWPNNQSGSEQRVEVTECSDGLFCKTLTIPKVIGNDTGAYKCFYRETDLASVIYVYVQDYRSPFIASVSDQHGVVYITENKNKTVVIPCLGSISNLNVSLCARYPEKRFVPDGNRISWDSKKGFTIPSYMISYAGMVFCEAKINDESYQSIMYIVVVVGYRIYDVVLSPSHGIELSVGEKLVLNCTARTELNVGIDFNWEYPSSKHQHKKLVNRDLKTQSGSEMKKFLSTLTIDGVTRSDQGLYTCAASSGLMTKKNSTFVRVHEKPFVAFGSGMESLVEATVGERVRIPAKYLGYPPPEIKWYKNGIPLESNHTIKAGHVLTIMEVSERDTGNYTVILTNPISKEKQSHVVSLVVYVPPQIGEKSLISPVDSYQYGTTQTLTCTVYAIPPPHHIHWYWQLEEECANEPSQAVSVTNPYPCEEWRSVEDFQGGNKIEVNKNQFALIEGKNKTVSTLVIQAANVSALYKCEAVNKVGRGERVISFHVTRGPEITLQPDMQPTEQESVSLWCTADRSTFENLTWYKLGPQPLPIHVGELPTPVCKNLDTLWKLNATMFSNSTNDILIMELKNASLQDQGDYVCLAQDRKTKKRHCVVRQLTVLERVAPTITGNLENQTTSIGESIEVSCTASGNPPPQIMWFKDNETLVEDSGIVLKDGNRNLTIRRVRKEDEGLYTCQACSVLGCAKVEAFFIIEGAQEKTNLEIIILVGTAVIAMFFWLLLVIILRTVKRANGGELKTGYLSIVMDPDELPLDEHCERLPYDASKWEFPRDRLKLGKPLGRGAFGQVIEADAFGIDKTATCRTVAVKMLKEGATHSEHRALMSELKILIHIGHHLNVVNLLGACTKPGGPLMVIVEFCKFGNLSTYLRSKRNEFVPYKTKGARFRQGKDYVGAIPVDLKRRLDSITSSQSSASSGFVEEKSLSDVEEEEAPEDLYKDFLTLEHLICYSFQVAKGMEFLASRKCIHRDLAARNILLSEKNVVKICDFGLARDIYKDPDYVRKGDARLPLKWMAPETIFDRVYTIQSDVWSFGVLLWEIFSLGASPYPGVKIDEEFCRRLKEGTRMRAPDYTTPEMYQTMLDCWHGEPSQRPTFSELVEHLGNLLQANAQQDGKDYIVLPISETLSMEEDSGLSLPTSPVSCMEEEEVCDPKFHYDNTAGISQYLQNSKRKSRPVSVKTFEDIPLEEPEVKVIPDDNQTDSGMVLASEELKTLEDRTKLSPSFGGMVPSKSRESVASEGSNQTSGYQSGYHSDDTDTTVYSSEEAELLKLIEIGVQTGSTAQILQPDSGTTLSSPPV
TIE2, sequence (Q02763 23-1124, species assumed): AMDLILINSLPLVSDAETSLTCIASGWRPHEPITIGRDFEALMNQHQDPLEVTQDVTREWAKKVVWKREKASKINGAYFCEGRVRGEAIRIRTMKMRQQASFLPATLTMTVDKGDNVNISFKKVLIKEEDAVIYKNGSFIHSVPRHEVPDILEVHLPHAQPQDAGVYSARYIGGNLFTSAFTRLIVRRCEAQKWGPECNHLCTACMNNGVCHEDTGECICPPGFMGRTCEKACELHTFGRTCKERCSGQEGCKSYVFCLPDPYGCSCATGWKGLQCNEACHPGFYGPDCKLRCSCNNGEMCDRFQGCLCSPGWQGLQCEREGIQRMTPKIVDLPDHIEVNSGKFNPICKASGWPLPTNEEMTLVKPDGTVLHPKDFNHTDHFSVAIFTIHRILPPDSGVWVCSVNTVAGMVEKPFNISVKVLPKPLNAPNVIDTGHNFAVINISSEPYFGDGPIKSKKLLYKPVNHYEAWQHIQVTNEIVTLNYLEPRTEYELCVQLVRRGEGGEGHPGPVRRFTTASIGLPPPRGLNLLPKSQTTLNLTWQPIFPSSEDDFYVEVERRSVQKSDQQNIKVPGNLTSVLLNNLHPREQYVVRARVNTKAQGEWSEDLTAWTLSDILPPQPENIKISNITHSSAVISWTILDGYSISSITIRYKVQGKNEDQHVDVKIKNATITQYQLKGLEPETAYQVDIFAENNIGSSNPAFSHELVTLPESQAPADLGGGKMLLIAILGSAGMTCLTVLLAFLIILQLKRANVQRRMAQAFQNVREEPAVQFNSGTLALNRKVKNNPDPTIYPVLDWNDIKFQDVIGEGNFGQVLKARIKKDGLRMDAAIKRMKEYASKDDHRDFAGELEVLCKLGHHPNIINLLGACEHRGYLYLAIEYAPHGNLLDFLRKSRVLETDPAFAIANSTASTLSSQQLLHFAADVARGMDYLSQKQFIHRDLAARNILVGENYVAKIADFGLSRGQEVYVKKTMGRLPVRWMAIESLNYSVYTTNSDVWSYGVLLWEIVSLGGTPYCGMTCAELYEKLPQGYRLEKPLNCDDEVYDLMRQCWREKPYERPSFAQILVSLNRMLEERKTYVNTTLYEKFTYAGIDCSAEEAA
PDGFRβ, sequence (P09619 33-1106, species assumed): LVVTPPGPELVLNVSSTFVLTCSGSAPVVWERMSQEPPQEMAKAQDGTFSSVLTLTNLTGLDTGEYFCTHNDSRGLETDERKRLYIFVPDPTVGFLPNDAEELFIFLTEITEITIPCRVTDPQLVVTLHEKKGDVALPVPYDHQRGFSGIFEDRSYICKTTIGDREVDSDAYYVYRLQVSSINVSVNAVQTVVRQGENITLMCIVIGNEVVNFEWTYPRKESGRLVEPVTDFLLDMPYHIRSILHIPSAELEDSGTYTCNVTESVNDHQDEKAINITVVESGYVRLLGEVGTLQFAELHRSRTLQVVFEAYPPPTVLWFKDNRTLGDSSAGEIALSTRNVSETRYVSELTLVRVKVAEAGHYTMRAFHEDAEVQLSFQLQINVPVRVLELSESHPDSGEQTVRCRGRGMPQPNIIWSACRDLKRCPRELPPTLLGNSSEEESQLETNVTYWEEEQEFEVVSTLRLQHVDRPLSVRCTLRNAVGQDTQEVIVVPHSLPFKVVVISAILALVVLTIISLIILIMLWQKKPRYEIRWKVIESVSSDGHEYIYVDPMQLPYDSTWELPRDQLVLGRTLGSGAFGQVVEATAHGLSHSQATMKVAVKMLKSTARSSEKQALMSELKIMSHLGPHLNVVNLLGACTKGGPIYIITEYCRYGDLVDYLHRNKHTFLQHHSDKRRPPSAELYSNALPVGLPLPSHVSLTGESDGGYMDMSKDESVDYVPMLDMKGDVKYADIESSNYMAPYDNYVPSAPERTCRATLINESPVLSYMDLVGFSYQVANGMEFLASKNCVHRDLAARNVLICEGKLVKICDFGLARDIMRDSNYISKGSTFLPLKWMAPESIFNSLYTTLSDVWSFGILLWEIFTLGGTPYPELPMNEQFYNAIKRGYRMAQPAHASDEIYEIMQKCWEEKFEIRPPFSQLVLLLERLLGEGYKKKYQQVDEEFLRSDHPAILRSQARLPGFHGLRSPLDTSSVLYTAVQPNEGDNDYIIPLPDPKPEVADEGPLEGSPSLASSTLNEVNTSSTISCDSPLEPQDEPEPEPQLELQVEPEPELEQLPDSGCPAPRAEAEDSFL
IGF1R, sequence (P08069 31-1367, species assumed): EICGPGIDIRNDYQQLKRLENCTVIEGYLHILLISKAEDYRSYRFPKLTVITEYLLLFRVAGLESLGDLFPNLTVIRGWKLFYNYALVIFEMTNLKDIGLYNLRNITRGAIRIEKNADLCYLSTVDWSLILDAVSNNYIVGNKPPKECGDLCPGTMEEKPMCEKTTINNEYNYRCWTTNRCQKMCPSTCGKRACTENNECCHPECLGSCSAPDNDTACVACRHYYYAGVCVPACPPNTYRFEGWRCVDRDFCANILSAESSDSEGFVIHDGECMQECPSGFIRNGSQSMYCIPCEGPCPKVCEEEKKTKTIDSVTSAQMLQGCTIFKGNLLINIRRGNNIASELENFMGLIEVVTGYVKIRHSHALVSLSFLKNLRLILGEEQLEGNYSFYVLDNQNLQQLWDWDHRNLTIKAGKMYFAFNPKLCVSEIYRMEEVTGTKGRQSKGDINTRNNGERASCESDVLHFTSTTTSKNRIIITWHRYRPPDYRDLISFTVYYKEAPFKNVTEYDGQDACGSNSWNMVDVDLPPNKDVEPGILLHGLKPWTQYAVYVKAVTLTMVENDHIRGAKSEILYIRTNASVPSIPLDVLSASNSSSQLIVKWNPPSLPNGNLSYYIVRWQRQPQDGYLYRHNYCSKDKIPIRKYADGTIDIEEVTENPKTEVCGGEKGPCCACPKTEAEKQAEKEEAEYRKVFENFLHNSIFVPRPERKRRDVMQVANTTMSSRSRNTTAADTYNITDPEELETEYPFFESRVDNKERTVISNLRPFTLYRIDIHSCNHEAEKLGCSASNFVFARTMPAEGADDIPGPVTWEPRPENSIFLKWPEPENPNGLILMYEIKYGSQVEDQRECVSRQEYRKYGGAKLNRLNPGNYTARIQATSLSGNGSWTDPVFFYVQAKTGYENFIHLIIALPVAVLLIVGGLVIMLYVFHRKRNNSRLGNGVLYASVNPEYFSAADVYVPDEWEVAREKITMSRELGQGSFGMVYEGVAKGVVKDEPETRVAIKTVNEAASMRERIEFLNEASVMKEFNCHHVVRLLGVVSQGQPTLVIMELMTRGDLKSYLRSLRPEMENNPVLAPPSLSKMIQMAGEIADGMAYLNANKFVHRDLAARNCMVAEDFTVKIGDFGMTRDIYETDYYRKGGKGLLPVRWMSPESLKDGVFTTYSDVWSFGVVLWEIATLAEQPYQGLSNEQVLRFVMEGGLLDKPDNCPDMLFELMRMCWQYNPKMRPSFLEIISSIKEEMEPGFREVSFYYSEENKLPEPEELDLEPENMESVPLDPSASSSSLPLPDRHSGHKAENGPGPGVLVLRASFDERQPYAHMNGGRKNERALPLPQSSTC
T1 sequence (P08069 31-1367): as the sequence (P08069 31-1367, species assumed) above

The term IC50 denotes the concentration that gives 50% inhibition. Regarding `NCC1CC(n2cc(-c3ccc4ccn(Cc5ccccc5)c4c3)c3c(N)ncnc32)C1` (centres unmarked) [Compound 55], the IC50 came out at 1600 nM against IGF1R; 3500 nM on IGF1 receptor (IGF1R); 24000 nM in series [1]; 190 nM on VEGF-2; 680 nM against TIE2.
Usually solubility stands for the concentration that dissolves in the medium under given conditions. A low value points to little dissolved substance. Consider `NCC1CC(n2cc(-c3cccc(OCc4ccccc4)c3)c3c(N)ncnc32)C1` (centres unmarked) [7-(3-Aminomethylcyclobutyl)-5-(3-benzyloxyphenyl)-7H-pyrrolo[2,3-d]pyrimidin-4-ylamine, reference compound], for which the concentration in solution in series [2] (solubility at 24 h) was 233 µg/mL (≈ 583 µM).
As to `CC(=O)NCC1CC(n2cc(-c3cccc(OCc4ccccc4)c3)c3c(N)ncnc32)C1` (centres unmarked) [N-{3-[4-Amino-5-(3-benzyloxyphenyl)pyrrolo[2,3-d]pyrimidin-7-yl]cyclobutylmethyl}acetamide, reference compound], the solubility at 24 h in series [2] is 5 µg/mL (≈ 11.3 µM).
As to `CS(=O)(=O)c1cccc(-c2cn(C3CC(CN)C3)c3ncnc(N)c23)c1` (centres unmarked) [Compound 11, 7-(3-Aminomethylcyclobutyl)-5-(3-methanesulfonyl-phenyl)-7H-pyrrolo[2,3-d]pyrimidin-4-ylamine], the IC50 at IGF1 receptor (IGF1R) turned out to be 10000 nM; in series [1], 28000 nM. Also, the solubility at 24 h in series [2] was above 1000 µg/mL.
Consider `NCC1CC(n2cc(-c3ccc4c(ccn4Cc4ccccc4)c3)c3c(N)ncnc32)C1` (centres unmarked) [Compound 56], for which the IC50 against IGF1R came to 1400 nM; on IGF1 receptor (IGF1R), 4100 nM; on VEGF-2, 61 nM; against TIE2, 495 nM; on TGFβR1, 5000 nM.
In series [2], `Nc1ncnc2c1c(-c1cccc(OCc3ccccc3)c1)cn2C1CC(CNC(=O)N2CCCCC2)C1` (centres unmarked) [Piperidine-1-carboxylic acid {3-[4-amino-5-(3-benzyloxy-phenyl)pyrrolo[2,3-d]pyrimidin-7-yl]cyclo-butylmethyl}amide, reference compound] yielded a solubility at 24 h below 1 µg/mL.
As a reminder, the melting point is the temperature, or range, at which the solid turns liquid. As to `NCC1CC(n2cc(-c3ccc4c(c3)OCCO4)c3c(N)ncnc32)C1` (centres unmarked) [Compound 53], the melting point was 324 to 325.5 °C. For the same compound, at IGF1 receptor (IGF1R), the IC50 came to 5300 nM. The compound further registered an IC50 in [1] of 1900 nM. In addition, it took 1400 nM to reach half-maximal inhibition against VEGF-2 (IC50). Besides, the IC50 against TIE2 came to 2000 nM. In addition, the midpoint of inhibition against PDGFRβ, the IC50, lay at 1100 nM. The same compound yielded a concentration for half-maximal inhibition (IC50) against TGFβR1 of 1600 nM.
With `Nc1ncnc2c1c(-c1cccc(OCc3ccccc3)c1)cn2C1CC(CN2C(=O)c3ccccc3C2=O)C1` (centres unmarked) [2-{3-[4-Amino-5-(3-benzyloxyphenyl)pyrrolo[2,3-d]pyrimidin-7-yl]cyclobutylmethyl}isoindole-1,3-dione, reference compound], the solubility at 24 h in series [2] was below 1 µg/mL.
In turn, `NCC1CC(n2cc(-c3cccc(F)c3)c3c(N)ncnc32)C1` (centres unmarked) [Compound 6, 7-(3-aminomethylcyclobutyl)-5-(3-fluorophenyl)-7H-pyrrolo[2,3-d]pyrimidin-4-ylamine] gave a melting point of 101 to 102 °C. This compound displayed a half-inhibitory concentration (IC50) at IGF1R of 7500 nM. Moreover, in series [1], half-maximal inhibition (IC50) required 1400 nM. Also, the IC50 at VEGF-2 is 1800 nM. The midpoint of inhibition at PDGFRβ, the IC50, lay at 700 nM. On TGFβR1, the IC50 was found to be 1700 nM.
As for `Nc1ncnc2c1c(-c1cccc(OCc3ccccc3)c1)cn2C1CC(CN2CCCC2)C1` (centres unmarked) [5-(3-Benzyloxyphenyl)-7-(3-pyrrolidin-1-ylmethyl-cyclobutyl)-7H-pyrrolo[2,3-d]pyrimidin-4-ylamine, reference compound], in [2], the solubility at 24 h amounted to 53 µg/mL (≈ 117 µM).
For the compound `NCC1CC(n2cc(-c3ccccc3)c3c(N)ncnc32)C1` (centres unmarked) [Compound 4], the melting point was in the range of 84 to 86 °C. Also, the IC50 on IGF1R came to 7400 nM. This compound returned an IC50 in series [1] of 1100 nM. Besides, on VEGF-2, the half-inhibitory concentration (IC50) was determined as 1100 nM. Besides, at TIE2, it took 7400 nM to reach half-maximal inhibition (IC50). This compound displayed a concentration for half-maximal inhibition (IC50) against PDGFRβ of 920 nM. Further, on TGFβR1, it took 2800 nM to reach half-maximal inhibition (IC50).
On to `NCC1CC(n2cc(-c3ccc(N)cc3)c3c(N)ncnc32)C1` (centres unmarked) [Compound 24], for which the half-inhibitory concentration (IC50) against IGF1R came out at 2300 nM; at IGF1 receptor (IGF1R), 9200 nM; in series [1], 3300 nM; at VEGF-2 it was 630 nM; against TIE2, 1500 nM; on PDGFRβ, 630 nM.
